Measurements: US6384030B1, “Water soluble azoles as broad-spectrum antifungals” (priority 1998, dated 2002)
In brackets after ≈: the same amount, converted by molar mass.

Assays:
[1] = Saksena et al., Bioorganic & Medicinal Chemistry Letters (1995), 5(2), 127-132; cited from earlier work
[2] = tested on: Candida spp.; experiment: Fungal susceptibility, Panel 1 (example C1); format: cell-based; conditions: Panel 1: 8 isolates of Candida spp. incl. an azole-resistant C. albicans strain; CYG broth; 37° C. for 48 hours; growth below 35% of control; read-out: geometric mean minimum inhibitory concentration-value (MIC)
[3] = tested on: other fungi (3 dermatophyte isolates, Aspergillus migatus, Cryptococcus neoformans, Sporothrix schenckii); experiment: Fungal susceptibility, Panel 2 (example C1); format: cell-based; conditions: Panel 2: 6 other fungi (3 dermatophytes, Aspergillus, Cryptococcus neoformans, Sporothrix schenckii); CYG broth; growth below 35% of control
[4] = Water solubility (example D1); format: physicochemical; conditions: aqueous buffer, thermodynamic from solid; water buffered with 0.1 M citric acid and 0.2 M Na2HPO4 (pH =4); shaken 1 day at room temperature; UV
[5] = tested on: Fusarium spp.; experiment: Minimum fungicidal concentration (example C2); format: cell-based; conditions: 10 Fusarium spp.; RPMI 1640 buffered with MOPS, 2% glucose; subculture on Sabouraud glucose agar; read-out: Geometric mean minimum fungicidal concentrations
Description: (§1) A panel of 24 Candida isolates, 8 isolates of Aspergillus spp., 8 dermatophytes, 10 Zygomycetes, 10 Fusarium spp., 2 Cryptococcus neoformans and 8 dematiaceous hyphomycetes was used.
(§2) Inocula were prepared as in example C1 but the culture medium used in this test was RPMI 1640 buffered with MOPS, with 2% glucose (Odds, F. C., Antimicrobial Agents and Chemotherapy, 1995, 39, 2051-2060). Test compounds were added to the medium from DMSO solutions to give final concentrations in the series 10, 3.2, 1.0, 0.32, 0.10, 0.032, 0.010,0.0032 and 0.0010 μM. Incubation times and temperatures were as in example C1. Once the microdilution plates had been read for growth turbidity spectrophotometrically, samples of material were removed from the test cultures to inoculate 10 μl volumes on plates of Sabouraud glucose agar. The plates were incubated at 37° C. for 48 hours for yeasts or at other times and temperatures for other species. Geometric mean minimum fungicidal concentrations in μM which were determined as the lowest concentrations of the test compound that completely or substantially eliminated reappearance of fungal growth on the Sabouraud plates

[6] = tested on: Zygomycetes; experiment: Minimum fungicidal concentration (example C2); format: cell-based; conditions: 10 Zygomycetes; RPMI 1640 buffered with MOPS, 2% glucose; subculture on Sabouraud glucose agar; read-out: Geometric mean minimum fungicidal concentrations
Description: as §1, §2

[7] = tested on: Candida spp.; experiment: Minimum fungicidal concentration (example C2); format: cell-based; conditions: 24 Candida isolates; RPMI 1640 buffered with MOPS, 2% glucose; subculture on Sabouraud glucose agar; read-out: Geometric mean minimum fungicidal concentrations
Description: as §1, §2

Structure (SMILES) | activity as antifungal compared to SCH 51048 [1] | MIC [2] | MIC [3] | solubility at 1 day [4] | MFC [5] | MFC [6] | MFC [7]
CN(C)CCn1ncn(-c2ccc(N3CCN(c4ccc(OC[C@@H]5CO[C@@](Cn6cncn6)(c6ccc(F)cc6F)C5)cc4)CC3)cc2)c1=O (relative stereo) [(3R-cis)-4-[4-[4-[4-[[5-(2,4-difluorophenyl)tetrahydro-5-(1H-1,2,4-triazol-1-ylmethyl)-3-furanyl]methoxy]phenyl]-1-piperazinyl]phenyl]-2-[2-(dimethylamino)ethyl]-2,4-dihydro-3H-1,2,4-triazol-3-one] | profoundly less active |  |  |  |  |  | 
C[C@@H](N[C@H](C)[C@H](C)n1ncn(-c2ccc(N3CCN(c4ccc(OC[C@@H]5CO[C@@](Cn6cncn6)(c6ccc(F)cc6F)O5)cc4)CC3)cc2)c1=O)c1ccccc1 (relative stereo) [Compound 86, [2S-[2α,4α[(R*,S*)(S*)]]]-4-[4-[4-[4-[[2-(2,4-difluoropheny)-2-(1H-1,2,4-triazol-1-yl-methyl)-1,3-dioxolan-4-yl]methoxy]phenyl]-1-piperazinyl]phenyl]-2,4-dihydro-2-[2-[(1-phenylethyl)amino]-1-methylpropyl]-3H-1,2,4-triazol-3-one] |  | 0.01 to 1 µM (≈ 0.00792 to 0.792 µg/mL) | 0.01 to 1 µM (≈ 0.00792 to 0.792 µg/mL) | > 100 µg/mL | 1 to 10 µM (≈ 0.792 to 7.92 µg/mL) | 1 to 10 µM (≈ 0.792 to 7.92 µg/mL) | 1 to 10 µM (≈ 0.792 to 7.92 µg/mL)
